Experimental data reported in US20240343681A1, “MOLECULES HAVING PESTICIDAL UTILITY AND INTERMEDIATES AND PROCESSES RELATED THERETO” (priority 2021, published 2024).

Key:
[1] = tested on: Beet Armyworm (Spodoptera exigua, LAPHEG) second instar larva; assay: Bioassay on beet armyworm (BAW), 128-well diet tray assay; assay type: in vivo; conditions: 50 μg/cm^2 on artificial diet, 25° C., five days
Procedure, shortened: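 Test molecule in 90:10 acetone–water applied at 50 μg/cm^2 onto 1 mL artificial diet and dried; one second-instar larva per well, eight wells. Held 5 days at 25 °C, 14:10 light–dark; percent mortality averaged over the eight wells.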

[2] = tested on: Yellow Fever Mosquito (Aedes aegypti, AEDSAE) larvae; assay: Bioassay on yellow fever mosquito (YFM), 96-well plate larval assay; assay type: in vivo; conditions: 4000 ppm (master plate solution), about 1 day-old larvae, 3 days
Description: Example B: Bioassays on Yellow Fever Mosquito (Aedes aegypti, AEDSAE) (“YFM”)
Master plates containing 400 μg of a molecule dissolved in 100 μL of dimethyl sulfoxide (DMSO) (equivalent to a 4000 ppm solution) are used. A master plate of assembled molecules contains 15 μL per well. To this plate, 135 μL of a 90:10 water/acetone mixture is added to each well. A robot (Biomek® NXP Laboratory Automation Workstation) is programmed to dispense 15 μL aspirations from the master plate into an empty 96-well shallow plate (“daughter” plate). There are 6 reps (“daughter” plates) created per master. The created “daughter” plates are then immediately infested with YFM larvae.
The day before plates are to be treated, mosquito eggs are placed in Millipore water containing liver powder to begin hatching (4 g into 400 mL). After the “daughter” plates are created using the robot, they are infested with 220 μL of the liver powder/larval mosquito mixture (about 1 day-old larvae). After plates are infested with mosquito larvae, a non-evaporative lid is used to cover the plate to reduce drying. Plates are held at room temperature for 3 days prior to grading. After 3 days, each well is observed and scored based on mortality.

SMILES | activity against BAW (percent mortality, averaged over eight wells) [1] | activity against YFM (scored based on mortality) [2]
Cc1cccc(C(=O)Nc2cc(NC(=O)[C@H]3[C@H](c4cc(Cl)cc(Cl)c4)C3(Cl)Cl)ccc2Cl)c1 (racemic) [F74, trans-rac-N-(2-Chloro-5-(2,2-dichloro-3-(3,5-dichlorophenyl)cyclopropane-1-carboxamido)phenyl)-3-methylbenzamide] | exhibited activity | exhibited activity
Cc1ccc(C(=O)Nc2cc(NC(=O)[C@H]3[C@H](c4cc(Cl)cc(Cl)c4)C3(Cl)Cl)ccc2Cl)cc1 (racemic) [F75, trans-rac-N-(2-Chloro-5-(2,2-dichloro-3-(3,5-dichlorophenyl)cyclopropane-1-carboxamido)phenyl)-4-methylbenzamide] | exhibited activity | exhibited activity
Cc1cc(F)ccc1C(=O)Nc1cc(NC(=O)[C@H]2[C@H](c3cc(Cl)cc(Cl)c3)C2(Cl)Cl)ccc1Cl (racemic) [F77, trans-rac-N-(2-Chloro-5-(2,2-dichloro-3-(3,5-dichlorophenyl)cyclopropane-1-carboxamido)phenyl)-4-fluoro-2-methylbenzamide] | exhibited activity | exhibited activity
O=C(Nc1cc(NC(=O)[C@H]2[C@H](c3cc(Cl)cc(Cl)c3)C2(Cl)Cl)ccc1Cl)c1ccccc1Cl (racemic) [F78, trans-rac-2-Chloro-N-(2-chloro-5-(2,2-dichloro-3-(3,5-dichlorophenyl)cyclopropane-1-carboxamido)phenyl)benzamide] | exhibited activity | exhibited activity
O=C(Nc1cc(NC(=O)[C@H]2[C@H](c3cc(Cl)cc(Cl)c3)C2(Cl)Cl)ccc1Cl)c1ccc(Cl)cc1 (racemic) [F79, trans-rac-4-Chloro-N-(2-chloro-5-(2,2-dichloro-3-(3,5-dichlorophenyl)cyclopropane-1-carboxamido)phenyl)benzamide] | exhibited activity | exhibited activity
O=C(Nc1cc(NC(=O)[C@H]2[C@H](c3cc(Cl)cc(Cl)c3)C2(Cl)Cl)ccc1Cl)c1cc(Cl)cc(Cl)c1 (racemic) [F80, trans-rac-3,5-Dichloro-N-(2-chloro-5-(2,2-dichloro-3-(3,5-dichlorophenyl)cyclopropane-1-carboxamido)phenyl)benzamide] | exhibited activity | exhibited activity
O=C(Nc1cc(NC(=O)[C@H]2[C@H](c3cc(Cl)cc(Cl)c3)C2(Cl)Cl)ccc1Cl)c1ccc(C(F)(F)F)cc1 (racemic) [F82, trans-rac-N-(2-Chloro-5-(2,2-dichloro-3-(3,5-dichlorophenyl)cyclopropane-1-carboxamido)phenyl)-4-(trifluoromethyl)benzamide] | exhibited activity | exhibited activity
O=C(Nc1cc(NC(=O)[C@H]2[C@H](c3cc(Cl)cc(Cl)c3)C2(Cl)Cl)ccc1Cl)c1ccc(F)c(C(F)(F)F)c1 (racemic) [F83, trans-rac-N-(2-Chloro-5-(2,2-dichloro-3-(3,5-dichlorophenyl)cyclopropane-1-carboxamido)phenyl)-4-fluoro-3-(trifluoromethyl)benzamide] | exhibited activity | exhibited activity
COc1cccc(C(=O)Nc2cc(NC(=O)[C@H]3[C@H](c4cc(Cl)cc(Cl)c4)C3(Cl)Cl)ccc2Cl)c1 (racemic) [F84, trans-rac-N-(2-Chloro-5-(2,2-dichloro-3-(3,5-dichlorophenyl)cyclopropane-1-carboxamido)phenyl)-3-methoxybenzamide] | exhibited activity | exhibited activity
COc1ccc(C(=O)Nc2cc(NC(=O)[C@H]3[C@H](c4cc(Cl)cc(Cl)c4)C3(Cl)Cl)ccc2Cl)cc1 (racemic) [F85, trans-rac-N-(2-Chloro-5-(2,2-dichloro-3-(3,5-dichlorophenyl)cyclopropane-1-carboxamido)phenyl)-4-methoxybenzamide] | exhibited activity | exhibited activity
O=C(COCC(F)(F)F)Nc1c(F)ccc(NC(=O)[C@H]2[C@H](c3ccc(F)c(C(F)(F)F)c3)C2(Cl)Cl)c1F (racemic) [F95, trans-rac-2,2-Dichloro-N-(2,4-difluoro-3-(2-(2,2,2-trifluoroethoxy)acetamido)phenyl)-3-(4-fluoro-3-(trifluoromethyl)phenyl)cyclopropane-1-carboxamide] | exhibited activity | exhibited activity
O=C(Nc1cc(NC(=O)[C@H]2[C@H](c3ccc(F)c(C(F)(F)F)c3)C2(Cl)Cl)ccc1Cl)c1ccc(NC(=O)C(F)F)cc1F (racemic) [F111, trans-rac-N-(2-Chloro-5-(2,2-dichloro-3-(4-fluoro-3-(trifluoromethyl)phenyl)cyclopropane-1-carboxamido)phenyl)-4-(2,2-difluoroacetamido)-2-fluorobenzamide] | exhibited activity | exhibited activity
O=C(Nc1cc(NC(=O)[C@H]2[C@H](c3ccc(F)c(C(F)(F)F)c3)C2(Cl)Cl)ccc1Cl)c1ccc(NC(=O)C(F)(F)F)cc1F (racemic) [F112, trans-rac-N-(2-Chloro-5-(2,2-dichloro-3-(4-fluoro-3-(trifluoromethyl)phenyl)cyclopropane-1-carboxamido)phenyl)-2-fluoro-4-(2,2,2-trifluoroacetamido)benzamide] | exhibited activity | exhibited activity
CC(=O)Nc1ccc(C(=O)Nc2cc(NC(=O)[C@H]3[C@H](c4ccc(F)c(C(F)(F)F)c4)C3(Cl)Cl)ccc2Cl)c(C)c1F (racemic) [F113, trans-rac-4-Acetamido-N-(2-chloro-5-(2,2-dichloro-3-(4-fluoro-3-(trifluoromethyl)phenyl)cyclopropane-1-carboxamido)phenyl)-3-fluoro-2-methylbenzamide] | exhibited activity | exhibited activity
Cc1c(C(=O)Nc2cc(NC(=O)[C@H]3[C@H](c4ccc(F)c(C(F)(F)F)c4)C3(Cl)Cl)ccc2Cl)ccc(NC(=O)CC(F)(F)F)c1F (racemic) [F114, trans-rac-N-(2-Chloro-5-(2,2-dichloro-3-(4-fluoro-3-(trifluoromethyl)phenyl)cyclopropane-1-carboxamido)phenyl)-3-fluoro-2-methyl-4-(3,3,3-trifluoropropanamido)benzamide] | exhibited activity | exhibited activity
COCC(=O)Nc1ccc(C(=O)Nc2cc(NC(=O)[C@H]3[C@H](c4ccc(F)c(C(F)(F)F)c4)C3(Cl)Cl)ccc2Cl)c(C)c1F (racemic) [F115, trans-rac-N-(2-Chloro-5-(2,2-dichloro-3-(4-fluoro-3-(trifluoromethyl)phenyl)cyclopropane-1-carboxamido)phenyl)-3-fluoro-4-(2-methoxyacetamido)-2-methylbenzamide] | exhibited activity | exhibited activity
Cc1c(C(=O)Nc2cc(NC(=O)[C@H]3[C@H](c4ccc(F)c(C(F)(F)F)c4)C3(Cl)Cl)ccc2Cl)ccc(NC(=O)COCC(F)(F)F)c1F (racemic) [F116, trans-rac-N-(2-Chloro-5-(2,2-dichloro-3-(4-fluoro-3-(trifluoromethyl)phenyl)cyclopropane-1-carboxamido)phenyl)-3-fluoro-2-methyl-4-(2-(2,2,2-trifluoroethoxy)acetamido)benzamide] | exhibited activity | exhibited activity
CC(=O)Nc1ccc(C(=O)Nc2cc(NC(=O)[C@H]3[C@H](c4ccc(F)c(C(F)(F)F)c4)C3(Cl)Cl)ccc2Cl)c(F)c1 (racemic) [F117, trans-rac-4-Acetamido-N-(2-chloro-5-(2,2-dichloro-3-(4-fluoro-3-(trifluoromethyl)phenyl)cyclopropane-1-carboxamido)phenyl)-2-fluorobenzamide] | exhibited activity | exhibited activity
